US7361682B2, “Indole derivatives as H3 inverse agonists” (Hoffmann-La Roche Inc., priority 2004, dated 2008)

Target: T1, histamine 3 receptor (H3R) (Homo sapiens, UniProt Q9Y5N1)
T1 construct: expressed in transfected cells; host or cells: CHO cells
Test: Binding assay with 3H-(R)α-methylhistamine (competition binding, membranes of human HR3-CHO cell line)
Settings: competition against 3H(R)α-Methylhistamine (1 nM), membrane of the human HR3-CHO cell line; Ki calculated from IC50 by Cheng-Prusoff equation
Protocol: Binding assay with ^3H-(R)α-methylhistamine
Saturation binding experiments were performed using HR^3—CHO membranes prepared as described in Takahashi, K, Tokita, S., Kotani, H. (2003) J. Pharmacol. Exp. Therapeutics 307, 213-218.
An appropriate amount of membrane (60 to 80 μg protein/well) was incubated with increasing concentrations of ^3H(R)α-Methylhistamine di-hydrochloride (0.10 to 10 nM). Non specific binding was determined using a 200 fold excess of cold (R)α-Methylhistamine dihydrobromide (500 nM final concentration). The incubation was carried out at room temperature (in deep-well plates shaking for three hours). The final volume in each well was 250 μl. The incubation was followed by rapid filtration on GF/B filters (pre-soaked with 100 μl of 0.5% PEI in Tris 50 mM shaking at 200 rpm for two hours). The filtration was made using a cell-harvester and the filter plates were then washed five times with ice cold washing buffer containing 0.5 M NaCl. After harvesting, the plates were dried at 55° C. for 60 min, then we added scintillation fluid (Microscint 40, 40 microl in each well) and the amount of radioactivity on the filter was determined in Packard top-counter after shaking the plates for two hours at 200 rpm at room temperature.
Binding Buffer: 50 mM Tris-HCl pH 7.4 and 5 mM MgCl2×6H2O pH 7.4. Washing Buffer: 50 mM Tris-HCl pH 7.4 and 5 mM MgCl2×6H2O and 0.5 M NaCl pH 7.4.
Indirect measurement of affinity of H3R inverse agonists: twelve increasing concentrations (ranging from 10 μM to 0.3 nM) of the selected compounds were always tested in competition binding experiments using membrane of the human HR3—CHO cell line. An appropriate amount of protein, e.g. approximately 500 cpm binding of RAMH at Kd, were incubated for 1 hour at room temperature in 250 μl final volume in 96-well plates in presence of ^3H(R)α-Methylhistamine (1 nM final concentration=Kd). […]
All compounds were tested at a single concentration in duplicates. […] Ki's were calculated from IC50 based on Cheng-Prusoff equation (Cheng, Y, Prusoff, W H (1973) Biochem Pharmacol 22, 3099-3108).

T1 sequence (Q9Y5N1 whole entry): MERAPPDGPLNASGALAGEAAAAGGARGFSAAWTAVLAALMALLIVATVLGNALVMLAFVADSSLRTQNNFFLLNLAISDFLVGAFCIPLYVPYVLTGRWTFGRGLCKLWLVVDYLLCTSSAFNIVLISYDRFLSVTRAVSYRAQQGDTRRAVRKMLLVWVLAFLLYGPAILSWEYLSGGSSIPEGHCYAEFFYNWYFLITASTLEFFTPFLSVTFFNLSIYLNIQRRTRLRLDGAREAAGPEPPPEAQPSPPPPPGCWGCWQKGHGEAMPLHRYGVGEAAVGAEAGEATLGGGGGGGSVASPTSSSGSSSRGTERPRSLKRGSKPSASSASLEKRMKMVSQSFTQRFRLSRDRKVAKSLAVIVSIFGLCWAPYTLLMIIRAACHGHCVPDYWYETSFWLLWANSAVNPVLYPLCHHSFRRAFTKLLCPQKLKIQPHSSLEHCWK

Ki [µM] | SMILES
0.077 | CC(C)N1CCN(C(=O)c2cc3cc(OCCC4CCCN4C)ccc3[nH]2)CC1 (stereo not drawn) [Example 117, (4-Isopropyl-piperazin-1-yl)-{5-[2-(1-methyl-pyrrolidin-2-yl)-ethoxy]-1H-indol-2-yl}-methanone]
0.023 | CC(C)N1CCC(Oc2ccc3[nH]c(C(=O)N4CCOCC4)cc3c2)C1 (stereo not drawn) [Example 2, [5-(1-Isopropyl-pyrrolidin-3-yloxy)-1H-indol-2-yl]-morpholin-4-yl-methanone]
0.093 | CC(C)N1CCC(Oc2ccc3cc(C(=O)N4CCSCC4)[nH]c3c2)CC1 [Example 140, [6-(1-isopropyl-piperidin-4-yloxy)-1H-indol-2-yl]-thiomorpholin-4-yl-methanone]
